Measurements as given in ChEMBL document CHEMBL1136175, “Synthesis and antimycobacterial activity of capuramycin analogues. Part 2: acylated derivatives of capuramycin-related compounds” (Bioorg Med Chem Lett, 2003).
≈ marks a conversion by molar mass, not a printed value.

Columns and labels:
Type in all cases: functional
[1] = test system: Mycolicibacterium smegmatis; assay: Antimycobacterial activity was determined against Mycobacterium smegmatis SANK75075
[2] = test system: Mycobacterium intracellulare; assay: Antimycobacterial activity against Mycobacterium intracellular ATCC 1954 E-3
[3] = test system: Mycobacterium kansasii; assay: Antimycobacterial activity against Mycobacterium kansasii ATCC 12478
[4] = test system: Mycobacterium avium; assay: Antimycobacterial activity against Mycobacterium avium NIHJ1605

| SMILES | MIC [1] [µg/mL] | MIC [2] [µg/mL] | MIC [3] [µg/mL] | MIC [4] [µg/mL] |
| --- | --- | --- | --- | --- |
| CO[C@H]1[C@@H](OC(=O)c2ccccc2)[C@H](n2ccc(=O)[nH]c2=O)O[C@@H]1[C@@H](O[C@H]1OC(C(=O)N[C@H]2CCC[C@@H](C)NC2=O)=C[C@H](O)[C@@H]1O)C(N)=O | 25 (≈ 36.4 µM) |  |  |  |
| CCCCCCCC/C=C\CCCCCCCC(=O)O[C@@H]1[C@H](OC)[C@@H]([C@@H](O[C@H]2OC(C(=O)N[C@H]3CCC[C@@H](C)NC3=O)=C[C@H](O)[C@@H]2O)C(N)=O)O[C@H]1n1ccc(=O)[nH]c1=O | 6.25 (≈ 7.37 µM) |  |  |  |
| CCCCC/C=C\C/C=C\CCCCCCCC(=O)O[C@@H]1[C@H](OC)[C@@H]([C@@H](O[C@H]2OC(C(=O)N[C@H]3CCC[C@@H](C)NC3=O)=C[C@H](O)[C@@H]2O)C(N)=O)O[C@H]1n1ccc(=O)[nH]c1=O | 6.25 (≈ 7.39 µM) |  |  |  |
| CC/C=C\C/C=C\C/C=C\CCCCCCCC(=O)O[C@@H]1[C@H](OC)[C@@H]([C@@H](O[C@H]2OC(C(=O)N[C@H]3CCC[C@@H](C)NC3=O)=C[C@H](O)[C@@H]2O)C(N)=O)O[C@H]1n1ccc(=O)[nH]c1=O | 3.13 (≈ 3.71 µM) |  |  |  |
| CCCCCCCCCC(=O)O[C@@H]1[C@H](OC)[C@@H]([C@@H](O[C@H]2OC(C(=O)N[C@H]3CCC[C@@H](C)NC3=O)=C[C@H](O)[C@@H]2O)C(N)=O)O[C@H]1n1ccc(=O)[nH]c1=O | 6.25 (≈ 8.47 µM) | < 0.063 | < 0.063 | < 0.063 |
| CCCCCCCCCCCCCCCC(=O)O[C@@H]1[C@H](OC)[C@@H]([C@@H](O[C@H]2OC(C(=O)N[C@H]3CCCCNC3=O)=C[C@H](O)[C@@H]2O)C(N)=O)O[C@H]1n1ccc(=O)[nH]c1=O | 1.56 (≈ 1.93 µM) | 2 (≈ 2.48 µM) | 4 (≈ 4.95 µM) | 1 (≈ 1.24 µM) |
| CO[C@H]1[C@@H](OC(=O)C(C)c2ccc([N+](=O)[O-])cc2)[C@H](n2ccc(=O)[nH]c2=O)O[C@@H]1[C@@H](O[C@H]1OC(C(=O)N[C@H]2CCC[C@@H](C)NC2=O)=C[C@H](O)[C@@H]1O)C(N)=O (stereo partly specified) | 25 (≈ 32.9 µM) |  |  |  |
| CCCCCCCCCCCCCCCCCC(=O)O[C@@H]1[C@H](OC)[C@@H]([C@@H](O[C@H]2OC(C(=O)N[C@H]3CCCCNC3=O)=C[C@H](O)[C@@H]2O)C(N)=O)O[C@H]1n1ccc(=O)[nH]c1=O | 50 (≈ 59.8 µM) |  |  |  |
| NNC(=O)c1ccncc1 [ISONIAZID] |  | 8 (≈ 58.3 µM) | 2 (≈ 14.6 µM) | 1 (≈ 7.29 µM) |
| CCCCCCCCCCCCCCCCCCCC(=O)O[C@@H]1[C@H](OC)[C@@H]([C@@H](O[C@H]2OC(C(=O)N[C@H]3CCCCNC3=O)=C[C@H](O)[C@@H]2O)C(N)=O)O[C@H]1n1ccc(=O)[nH]c1=O | 50 (≈ 57.9 µM) |  |  |  |
| CO[C@H]1[C@@H](OC(=O)CC(c2ccccc2)c2ccccc2)[C@H](n2ccc(=O)[nH]c2=O)O[C@@H]1[C@@H](O[C@H]1OC(C(=O)N[C@H]2CCC[C@@H](C)NC2=O)=C[C@H](O)[C@@H]1O)C(N)=O | 25 (≈ 31.6 µM) |  |  |  |
| CCCCCCCC/C=C\CCCCCCCCCCCC(=O)O[C@@H]1[C@H](OC)[C@@H]([C@@H](O[C@H]2OC(C(=O)N[C@H]3CCC[C@@H](C)NC3=O)=C[C@H](O)[C@@H]2O)C(N)=O)O[C@H]1n1ccc(=O)[nH]c1=O | > 100 |  |  |  |
| CCCCCCCC/C=C\CCCCCCCCCC(=O)O[C@@H]1[C@H](OC)[C@@H]([C@@H](O[C@H]2OC(C(=O)N[C@H]3CCC[C@@H](C)NC3=O)=C[C@H](O)[C@@H]2O)C(N)=O)O[C@H]1n1ccc(=O)[nH]c1=O | 50 (≈ 57.1 µM) |  |  |  |
| CCCCCCCCCCCCCCCCCCCCCC(=O)O[C@@H]1[C@H](OC)[C@@H]([C@@H](O[C@H]2OC(C(=O)N[C@H]3CCCCNC3=O)=C[C@H](O)[C@@H]2O)C(N)=O)O[C@H]1n1ccc(=O)[nH]c1=O | 100 (≈ 112 µM) |  |  |  |
| CCCCCCCCCCCCCCCCC(=O)O[C@@H]1[C@H](OC)[C@@H]([C@@H](O[C@H]2OC(C(=O)N[C@H]3CCCCNC3=O)=C[C@H](O)[C@@H]2O)C(N)=O)O[C@H]1n1ccc(=O)[nH]c1=O | 50 (≈ 60.8 µM) |  |  |  |
| CO[C@H]1/C=C/O[C@@]2(C)Oc3c(C)c(O)c4c(O)c(c(/C=N/N5CCN(C)CC5)c(O)c4c3C2=O)NC(=O)/C(C)=C\C=C\[C@H](C)[C@H](O)[C@@H](C)[C@@H](O)[C@@H](C)[C@H](OC(C)=O)[C@@H]1C [RIFAMPIN] |  | 0.125 (≈ 0.152 µM) | 0.25 (≈ 0.304 µM) | 0.125 (≈ 0.152 µM) |
